From US20260265329A1, “POLYPEPTIDE AND DERIVATIVE THEREOF, COMPOSITION, AND USE THEREOF” (HANGZHOU SCIWIND BIOSCIENCES CO., LTD., priority 2023, published 2026)
Starred links: 1 amine or outer side, 2 acyl side, 3 side chain; linkers in the order of their positions; H or OH if unused. Non-standard residues stand in square brackets, D forms with d. Residues, ends and D or L forms follow the SMILES beside them. *: point of attachment. C20 diacid = O=C(O)CCCCCCCCCCCCCCCCCCC(=O)*; C16 diacid = O=C(O)CCCCCCCCCCCCCCC(=O)*; γGlu = O=C(O)[C@H](CCC(=O)[*:2])N[*:1]; βAsp = O=C(O)[C@H](CC(=O)[*:2])N[*:1]; Hyp = O=C(O)[C@@H]1C[C@@H](O)CN1; Trx = NC[C@H]1CC[C@H](C(=O)O)CC1; AEEA = NCCOCCOCC(=O)O

Target: T1, human amylin receptors (Homo sapiens, UniProt O60896+P30988)
T1 construct: host or cells: CHO-K1/Ga15/AMY3 cells, further stably transfected with a CRE-luciferase plasmid
T1 sequence (P30988 25-474): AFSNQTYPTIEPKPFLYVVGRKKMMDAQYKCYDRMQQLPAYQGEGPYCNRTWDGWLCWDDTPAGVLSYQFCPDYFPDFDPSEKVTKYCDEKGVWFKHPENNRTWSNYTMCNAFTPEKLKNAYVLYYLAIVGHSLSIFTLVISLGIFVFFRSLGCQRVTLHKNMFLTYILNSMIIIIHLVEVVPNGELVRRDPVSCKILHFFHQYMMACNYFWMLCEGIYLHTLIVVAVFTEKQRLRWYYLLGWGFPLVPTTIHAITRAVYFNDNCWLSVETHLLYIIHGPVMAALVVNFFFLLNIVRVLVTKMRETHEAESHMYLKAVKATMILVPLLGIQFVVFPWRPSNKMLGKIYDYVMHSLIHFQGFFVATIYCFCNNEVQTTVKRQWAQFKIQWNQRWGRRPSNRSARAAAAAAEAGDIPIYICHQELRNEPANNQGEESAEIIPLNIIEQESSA
T1 sequence (O60896 24-148 partner): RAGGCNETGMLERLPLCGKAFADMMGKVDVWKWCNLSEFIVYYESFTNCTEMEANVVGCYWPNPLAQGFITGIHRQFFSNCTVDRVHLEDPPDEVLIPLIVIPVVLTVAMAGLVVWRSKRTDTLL
Test: Luciferase assay in stably transfected amylin receptor/CRE-luc CHO cell line
Type: cell-based
Details: for Relative activity: EC50 ratio of Cagrilintide to the compound, Cagrilintide 100%; for EC50: amylin receptor/CRE-luc CHO cells, 24 hours incubation, luminescence

| Compound | Relative activity [%] | EC50 [pM] |
| --- | --- | --- |
| CC[C@H](C)[C@H](NC(=O)[C@@H]1CCCN1C(=O)[C@H](CCCCN)NC(=O)[C@H](CC(C)C)NC(=O)[C@H](CC(N)=O)NC(=O)[C@H](CC(N)=O)NC(=O)[C@H](CO)NC(=O)[C@H](CO)NC(=O)[C@H](Cc1c[nH]cn1)NC(=O)[C@H](CCCNC(=N)N)NC(=O)[C@H](CC(C)C)NC(=O)[C@H](Cc1ccccc1)NC(=O)[C@H](CC(=O)O)NC(=O)[C@H](C)NC(=O)[C@H](CC(C)C)NC(=O)[C@H](CCCNC(=N)N)NC(=O)[C@H](CCC(N)=O)NC(=O)[C@@H](NC(=O)[C@H](C)NC(=O)[C@H](C)NC(=O)[C@@H](NC(=O)[C@H](CO)NC(=O)[C@H](CC(C)C)NC(=O)[C@H](CCC(N)=O)NC(=O)[C@H](CO)NC(=O)[C@H](C)NC(=O)[C@H](CCC(=O)O)NC(=O)CCCCCCCCCCCCCCCCCCC(=O)O)[C@@H](C)O)[C@@H](C)O)C(=O)N[C@@H](CC(C)C)C(=O)N1CCC[C@H]1C(=O)N1CCC[C@H]1C(=O)N[C@H](C(=O)N[C@@H](CC(N)=O)C(=O)N[C@H](C(=O)NCC(=O)N[C@@H](CO)C(=O)N[C@@H](CC(N)=O)C(=O)N[C@H](C(=O)N1C[C@H](O)C[C@H]1C(N)=O)[C@@H](C)O)C(C)C)[C@@H](C)O [M26] ({C20 diacid}-EASQLSTAATQRLADFLRHSSNNLKPILPPTNVGSNT[Hyp]-NH2) | 103 | 49 |
| CC[C@H](C)[C@H](NC(=O)[C@@H]1CCCN1C(=O)[C@H](CCCCN)NC(=O)[C@H](CC(C)C)NC(=O)[C@H](CC(N)=O)NC(=O)[C@H](CC(N)=O)NC(=O)[C@H](CO)NC(=O)[C@H](CO)NC(=O)[C@H](Cc1c[nH]cn1)NC(=O)[C@H](CCCNC(=N)N)NC(=O)[C@H](CC(C)C)NC(=O)[C@H](Cc1ccccc1)NC(=O)[C@H](CC(=O)O)NC(=O)[C@H](C)NC(=O)[C@H](CC(C)C)NC(=O)[C@H](CCCNC(=N)N)NC(=O)[C@H](CCC(N)=O)NC(=O)[C@@H](NC(=O)[C@H](C)NC(=O)[C@H](C)NC(=O)[C@@H](NC(=O)[C@H](CO)NC(=O)[C@H](CC(C)C)NC(=O)[C@H](CCC(N)=O)NC(=O)[C@H](CO)NC(=O)[C@H](C)NC(=O)COCCOCCNC(=O)COCCOCCNC(=O)[C@H](CC(=O)O)NC(=O)CCCCCCCCCCCCCCCCCCC(=O)O)[C@@H](C)O)[C@@H](C)O)C(=O)N[C@@H](CC(C)C)C(=O)N1CCC[C@H]1C(=O)N1CCC[C@H]1C(=O)N[C@H](C(=O)N[C@@H](CC(N)=O)C(=O)N[C@H](C(=O)NCC(=O)N[C@@H](CO)C(=O)N[C@@H](CC(N)=O)C(=O)N[C@H](C(=O)N1C[C@H](O)C[C@H]1C(N)=O)[C@@H](C)O)C(C)C)[C@@H](C)O [M34] ({C20 diacid}-D[AEEA][AEEA]ASQLSTAATQRLADFLRHSSNNLKPILPPTNVGSNT[Hyp]-NH2) | 40 | 132 |
| CC[C@H](C)[C@H](NC(=O)[C@H](CC(=O)O)NC(=O)[C@H](CCCNC(=N)N)NC(=O)[C@H](CC(=O)O)NC(=O)[C@H](CCCNC(=N)N)NC(=O)[C@H](CC(=O)O)NC(=O)[C@@H](NC(=O)[C@H](Cc1ccccc1)NC(=O)[C@H](Cc1c[nH]cn1)NC(=O)[C@H](CCCNC(=N)N)NC(=O)[C@H](CC(C)C)NC(=O)[C@H](Cc1ccccc1)NC(=O)[C@H](CC(=O)O)NC(=O)[C@H](C)NC(=O)[C@H](CC(C)C)NC(=O)[C@H](CCCNC(=N)N)NC(=O)[C@H](CCC(N)=O)NC(=O)[C@@H](NC(=O)[C@H](C)NC(=O)[C@H](C)NC(=O)[C@@H](NC(=O)[C@H](CO)NC(=O)[C@H](CC(C)C)NC(=O)[C@H](CCC(N)=O)NC(=O)[C@H](CO)NC(=O)[C@H](C)NC(=O)COCCOCCNC(=O)COCCOCCNC(=O)[C@H](CCC(=O)O)NC(=O)CCCCCCCCCCCCCCCCCCC(=O)O)[C@@H](C)O)[C@@H](C)O)[C@@H](C)O)C(=O)N[C@@H](CC(C)C)C(=O)N1CCC[C@H]1C(=O)N1CCC[C@H]1C(=O)N[C@H](C(=O)N[C@@H](CC(N)=O)C(=O)N[C@H](C(=O)NCC(=O)N[C@@H](CO)C(=O)N[C@@H](CC(N)=O)C(=O)N[C@H](C(=O)N1CCC[C@H]1C(N)=O)[C@@H](C)O)C(C)C)[C@@H](C)O [M17] ({C20 diacid}-E[AEEA][AEEA]ASQLSTAATQRLADFLRHFTDRDRDILPPTNVGSNTP-NH2) | 94 | 26 |
| CC[C@H](C)[C@H](NC(=O)[C@@H]1CCCN1C(=O)[C@H](CCCCN)NC(=O)[C@H](CC(C)C)NC(=O)[C@H](CC(N)=O)NC(=O)[C@H](CC(N)=O)NC(=O)[C@H](CO)NC(=O)[C@H](CO)NC(=O)[C@H](Cc1c[nH]cn1)NC(=O)[C@H](CCCNC(=N)N)NC(=O)[C@H](CC(C)C)NC(=O)[C@H](Cc1ccccc1)NC(=O)[C@H](CC(=O)O)NC(=O)[C@H](C)NC(=O)[C@H](CC(C)C)NC(=O)[C@H](CCCNC(=N)N)NC(=O)[C@H](CCC(N)=O)NC(=O)[C@@H](NC(=O)[C@H](C)NC(=O)[C@H](C)NC(=O)[C@@H](NC(=O)[C@H](CO)NC(=O)[C@H](CC(C)C)NC(=O)[C@H](CCC(N)=O)NC(=O)[C@H](CO)NC(=O)[C@H](C)NC(=O)CC[C@H](NC(=O)CCCCCCCCCCCCCCC(=O)O)C(=O)O)[C@@H](C)O)[C@@H](C)O)C(=O)N[C@@H](CC(C)C)C(=O)N1CCC[C@H]1C(=O)N1CCC[C@H]1C(=O)N[C@H](C(=O)N[C@@H](CC(N)=O)C(=O)N[C@H](C(=O)NCC(=O)N[C@@H](CO)C(=O)N[C@@H](CC(N)=O)C(=O)N[C@H](C(=O)N1C[C@H](O)C[C@H]1C(N)=O)[C@@H](C)O)C(C)C)[C@@H](C)O [M38] ({C16 diacid-γGlu}-ASQLSTAATQRLADFLRHSSNNLKPILPPTNVGSNT[Hyp]-NH2) | 181 | 30 |
| CC[C@H](C)[C@H](NC(=O)[C@H](CC(=O)O)NC(=O)[C@H](CCCNC(=N)N)NC(=O)[C@H](CC(=O)O)NC(=O)[C@H](CCCNC(=N)N)NC(=O)[C@H](CC(=O)O)NC(=O)[C@@H](NC(=O)[C@H](Cc1ccccc1)NC(=O)[C@H](Cc1c[nH]cn1)NC(=O)[C@H](CCCNC(=N)N)NC(=O)[C@H](CC(C)C)NC(=O)[C@H](Cc1ccccc1)NC(=O)[C@H](CC(=O)O)NC(=O)[C@H](C)NC(=O)[C@H](CC(C)C)NC(=O)[C@H](CCCNC(=N)N)NC(=O)[C@H](CCC(N)=O)NC(=O)[C@@H](NC(=O)[C@H](C)NC(=O)[C@H](C)NC(=O)[C@@H](NC(=O)[C@H](CO)NC(=O)[C@H](CC(C)C)NC(=O)[C@H](CCC(N)=O)NC(=O)[C@H](CO)NC(=O)[C@H](C)NC(=O)[C@H]1CC[C@H](CNC(=O)CCCCCCCCCCCCCCCCCCC(=O)O)CC1)[C@@H](C)O)[C@@H](C)O)[C@@H](C)O)C(=O)N[C@@H](CC(C)C)C(=O)N1CCC[C@H]1C(=O)N1CCC[C@H]1C(=O)N[C@H](C(=O)N[C@@H](CC(N)=O)C(=O)N[C@H](C(=O)NCC(=O)N[C@@H](CO)C(=O)N[C@@H](CC(N)=O)C(=O)N[C@H](C(=O)N1CCC[C@H]1C(N)=O)[C@@H](C)O)C(C)C)[C@@H](C)O [M14] ({C20 diacid-Trx}-ASQLSTAATQRLADFLRHFTDRDRDILPPTNVGSNTP-NH2) | 136 |  |
| CC[C@H](C)[C@H](NC(=O)[C@@H]1CCCN1C(=O)[C@H](CCCCN)NC(=O)[C@H](CC(C)C)NC(=O)[C@H](CC(N)=O)NC(=O)[C@H](CC(N)=O)NC(=O)[C@H](CO)NC(=O)[C@H](CO)NC(=O)[C@H](Cc1c[nH]cn1)NC(=O)[C@H](CCCNC(=N)N)NC(=O)[C@H](CC(C)C)NC(=O)[C@H](Cc1ccccc1)NC(=O)[C@H](CC(=O)O)NC(=O)[C@H](C)NC(=O)[C@H](CC(C)C)NC(=O)[C@H](CCCNC(=N)N)NC(=O)CNC(=O)[C@H](CC(C)C)NC(=O)[C@H](C)NC(=O)[C@H](C)NC(=O)[C@@H](NC(=O)[C@H](CO)NC(=O)[C@H](CC(C)C)NC(=O)[C@H](CCC(=O)O)NC(=O)[C@H](CO)NC(=O)[C@H](C)NC(=O)CC[C@H](NC(=O)CCCCCCCCCCCCCCCCCCC(=O)O)C(=O)O)[C@@H](C)O)C(=O)N[C@@H](CC(C)C)C(=O)N1CCC[C@H]1C(=O)N1CCC[C@H]1C(=O)N[C@H](C(=O)N[C@@H](CC(N)=O)C(=O)N[C@H](C(=O)NCC(=O)N[C@@H](CO)C(=O)N[C@@H](CC(N)=O)C(=O)N[C@H](C(=O)N1C[C@H](O)C[C@H]1C(N)=O)[C@@H](C)O)C(C)C)[C@@H](C)O [M1] ({C20 diacid-γGlu}-ASELSTAALGRLADFLRHSSNNLKPILPPTNVGSNT[Hyp]-NH2) | 49 | 53 |
| CC[C@H](C)[C@H](NC(=O)[C@H](CC(=O)O)NC(=O)[C@H](CCCNC(=N)N)NC(=O)[C@H](CC(=O)O)NC(=O)[C@H](CCCNC(=N)N)NC(=O)[C@H](CC(=O)O)NC(=O)[C@@H](NC(=O)[C@H](Cc1ccccc1)NC(=O)[C@H](Cc1c[nH]cn1)NC(=O)[C@H](CCCNC(=N)N)NC(=O)[C@H](CC(C)C)NC(=O)[C@H](Cc1ccccc1)NC(=O)[C@H](CC(=O)O)NC(=O)[C@H](C)NC(=O)[C@H](CC(C)C)NC(=O)[C@H](CCCNC(=N)N)NC(=O)[C@H](CCC(N)=O)NC(=O)[C@@H](NC(=O)[C@H](C)NC(=O)[C@H](C)NC(=O)[C@@H](NC(=O)[C@H](CO)NC(=O)[C@H](CC(C)C)NC(=O)[C@H](CCC(N)=O)NC(=O)[C@H](CO)NC(=O)[C@H](C)NC(=O)C[C@H](NC(=O)CCCCCCCCCCCCCCCCCCC(=O)O)C(=O)O)[C@@H](C)O)[C@@H](C)O)[C@@H](C)O)C(=O)N[C@@H](CC(C)C)C(=O)N1CCC[C@H]1C(=O)N1CCC[C@H]1C(=O)N[C@H](C(=O)N[C@@H](CC(N)=O)C(=O)N[C@H](C(=O)NCC(=O)N[C@@H](CO)C(=O)N[C@@H](CC(N)=O)C(=O)N[C@H](C(=O)N1CCC[C@H]1C(N)=O)[C@@H](C)O)C(C)C)[C@@H](C)O [M12] ({C20 diacid-βAsp}-ASQLSTAATQRLADFLRHFTDRDRDILPPTNVGSNTP-NH2) | 78 | 34 |
